Read-outs that look alike come from different tables or passages of the source. Blank lines part the entries; values can stand above or below the compound they belong to.
Experiments:
[1] = Incubation of β-amyloid in saline suspensions of nasal mucosa, development of electroactive peaks; assay type: in vitro ADME; conditions: over 6 hours, FIG. 7
Source text: (§1) Two characteristics make nasal secretions attractive for neurochemical analysis. The secretions are close to the site or origin of the compounds being measured and they are in a strong reducing environment. Oxidation potential measurements of saline suspensions of nasal secretions with platinum vs. Ag/Ag/cl yield values from -0.230 to -0.300 mV compared to lumbar CSF values of -0.050 to -0.170. The reducing character of the tissue is consistent with observation of a large number of easily oxidized peaks on the lower channels of the chromatographic pattern. The reducing character of the sample makes it highly attractive for clinical use because of the stability inferred for the target compounds. Indeed preliminary studies indicate no change in 5-hydroxyindoleacetic acid or homovanillic acid over 24 hours in perchloric acid extracts at room temperature. From the number of peaks in the 35-50 min region, the nasal mucosa also appear to be a stable matrix for small peptides, including fragments of β-amyloid peptide.

[2] = Stability in perchloric acid extracts of nasal secretions over 24 hours at room temperature; assay type: physicochemical
Source text: as §1
Swabs were extracted by cutting the tip and placing it in 300 μl of 0.1 M HClO4, they ere vortexed for 1 min. centrifuged and then reextracted in another 300 μl of 0.1 M HClO4. […] Following centrifugation the pellets are combined, and can be extracted with 40:60 acetonitrilehexane for analysis of ubiquinones and larger peptides.

Compound: β-amyloid
- development of electroactive peaks [1]: development over 6 hours of electroactive peaks
- electroactive peaks which corresponded to original peaks in the suspension [1]: five

- change over 24 hours (stability) [2]: no change
Compound: O=C(O)Cc1c[nH]c2ccc(O)cc12 [5-hydroxyindoleacetic acid]

Compound: COc1cc(CC(=O)O)ccc1O [homovanillic acid]
- change over 24 hours (stability) ([2]; 24 hours, perchloric acid extracts, room temperature, preliminary studies): no change

Source: patent US6194217A, “Method of diagnosing or categorizing disorders from biochemical profiles” (ESA, Inc., priority 1993, dated 2001)
